Reference: ChEMBL document CHEMBL1201862, “PubChem BioAssay data set” (2004)
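Exposure lasted 48 hours, with cells grown in 96-well plates and compounds tested at five concentrations. At the GI50, growth is halved.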 Activity calls are given as the source filed them. Cut-off read from the data, not from the text of the source: active = GI50 up to about 1.1 µM and inactive = higher.

Tests used:
Experiment in all cases: NCI tumour cell line growth inhibition, 48 h
[1] = system: MCF7
[2] = system: UACC-257
[3] = system: OVCAR-4
[4] = system: SNB-19
[5] = system: OVCAR-3
[6] = system: COLO 205
[7] = system: U-251
[8] = system: OVCAR-5
[9] = system: UACC-62
[10] = system: RPMI-8226
[11] = system: MDA-MB-435
[12] = system: NCI-H226
[13] = system: BT-549
[14] = system: MOLT-4
[15] = system: SK-MEL-5
[16] = system: HCT-15
[17] = system: DU-145
[18] = system: SW-620
[19] = system: Malme-3M
[20] = system: EKVX
[21] = system: NCI-H23
[22] = system: SN12C
[23] = system: NCI/ADR-RES
[24] = system: A549
[25] = system: M14
[26] = system: SF-539
[27] = system: UO-31
[28] = system: CCRF-CEM
[29] = system: TK-10
[30] = system: CAKI-1
[31] = system: SF-268
[32] = system: T47D
[33] = system: MDA-MB-231
[34] = system: K562
[35] = system: KM12
[36] = system: HOP-62
[37] = system: SK-MEL-2
[38] = system: OVCAR-8
[39] = system: HCT-116
[40] = system: SF-295
[41] = system: 786-0
[42] = system: ACHN
[43] = system: SR
[44] = system: IGROV-1
[45] = system: SK-MEL-28
[46] = system: RXF 393
[47] = system: HT-29
[48] = system: NCI-H522
[49] = system: SK-OV-3
[50] = system: PC-3
[51] = system: NCI-H460
[52] = system: SNB-75
[53] = system: HOP-92
[54] = system: LOX IMVI
[55] = system: Hs-578T
[56] = system: HCC 2998
[57] = system: MDA-N

## NC(=O)c1cn(C2OC(CO)C(O)C2O)c2nc[n+]([O-])c(N)c12 (stereo not drawn)
[1]
  GI50: 200 nM (active)
[2]
  GI50: 244 nM (active)
[3]
  GI50: 201 nM (active)
[4]
  GI50: 542 nM (active)
[5]
  GI50: 125 nM (active)
[6]
  GI50: 201 nM (active)
[7]
  GI50: 285 nM (active)
[8]
  GI50: 161 nM (active)
[9]
  GI50: 120 nM (active)
[10]
  GI50: 266 nM (active)
[11]
  GI50: 167 nM (active)
[12]
  GI50: 211 nM (active)
[13]
  GI50: 592 nM (active)
[14]
  GI50: 104 nM (active)
[15]
  GI50: 33.3 nM (active)
[16]
  GI50: 73.5 nM
[17]
  GI50: 104 nM (active)
[18]
  GI50: 40.9 nM (active)
[19]
  GI50: 39.8 nM (active)
[20]
  GI50: 1210 nM (inactive)
[21]
  GI50: 121 nM (active)
[22]
  GI50: 91.2 nM (active)
[23]
  GI50: 107 nM (active)
[24]
  GI50: 285 nM (active)
[25]
  GI50: 111 nM (active)
[26]
  GI50: 321 nM (active)
[27]
  GI50: 382 nM (active)
[28]
  GI50: 100 nM (active)
[29]
  GI50: 32.4 nM (active)
[30]
  GI50: 49.7 nM (active)
[31]
  GI50: 230 nM (active)
[32]
  GI50: 103 nM (active)
[33]
  GI50: 342 nM (active)
[34]
  GI50: 340 nM (active)
[35]
  GI50: 153 nM (active)
[36]
  GI50: 133 nM (active)
[37]
  GI50: 157 nM (active)
[38]
  GI50: 94 nM (active)
[39]
  GI50: 20.6 nM (active)
[40]
  GI50: 262 nM (active)
[41]
  GI50: 126 nM (active)
[42]
  GI50: 35.1 nM (active)
[43]
  GI50: 50.9 nM (active)
[44]
  GI50: 1050 nM (active)
[45]
  GI50: 341 nM (active)
[46]
  GI50: 564 nM (active)
[47]
  GI50: 143 nM (active)
[48]
  GI50: 1360 nM (inactive)
[49]
  GI50: 90.6 nM (active)
[50]
  GI50: 178 nM (active)
[51]
  GI50: 446 nM (active)
[52]
  GI50: 130 nM (active)
[53]
  GI50: 670 nM (active)
[54]
  GI50: 104 nM (active)
[55]
  GI50: 951 nM (active)

## C[C@H]1O[C@@H](O[C@H]2[C@@H](O)C[C@H](O[C@H]3[C@@H](O)C[C@H](O[C@H]4CC[C@@]5(C)[C@H](CC[C@@H]6[C@@H]5CC[C@]5(C)[C@@H](C7=CC(=O)OC7)CC[C@]65O)C4)O[C@@H]3C)O[C@@H]2C)C[C@H](O)[C@@H]1O [DIGITOXIN]
[1]
  GI50: 41.3 nM (active)
[2]
  GI50: 58.2 nM (active)
[3]
  GI50: 19.9 nM (active)
[4]
  GI50: 75 nM (active)
[5]
  GI50: < 17.2 nM (active)
[6]
  GI50: 50.1 nM (active)
[8]
  GI50: 54.3 nM (active)
[9]
  GI50: 57.9 nM (active)
[10]
  GI50: 29.2 nM (active)
[11]
  GI50: 48.5 nM (active)
[12]
  GI50: 63.5 nM (active)
[13]
  GI50: 18.9 nM (active)
[15]
  GI50: < 21.2 nM (active)
[16]
  GI50: 30.5 nM
[18]
  GI50: 29.6 nM (active)
[19]
  GI50: 28 nM (active)
[20]
  GI50: 28.6 nM (active)
[21]
  GI50: 18.5 nM (active)
[22]
  GI50: < 10 nM (active)
[23]
  GI50: 28.3 nM (active)
[24]
  GI50: < 15.7 nM (active)
[56]
  GI50: 171 nM (active)
[26]
  GI50: < 12.3 nM (active)
[27]
  GI50: 41.4 nM (active)
[28]
  GI50: < 19.9 nM (active)
[29]
  GI50: 25.2 nM (active)
[30]
  GI50: 18.4 nM (active)
[31]
  GI50: < 24.1 nM (active)
[33]
  GI50: 129 nM (active)
[34]
  GI50: < 24.6 nM (active)
[35]
  GI50: 55.3 nM (active)
[36]
  GI50: < 19.9 nM (active)
[37]
  GI50: 64.1 nM (active)
[39]
  GI50: 16.5 nM (active)
[40]
  GI50: 25.8 nM (active)
[42]
  GI50: < 15 nM (active)
[43]
  GI50: 33.8 nM (active)
[44]
  GI50: 36.5 nM (active)
[45]
  GI50: 92 nM (active)
[46]
  GI50: 17.5 nM (active)
[47]
  GI50: 33.8 nM (active)
[48]
  GI50: < 10 nM (active)
[49]
  GI50: 45 nM (active)
[50]
  GI50: < 33 nM (active)
[57]
  GI50: 25.6 nM (active)
[52]
  GI50: 67.6 nM (active)
[53]
  GI50: 42.2 nM (active)
[55]
  GI50: < 37.8 nM (active)
